The test deals with HPK1 (Homo sapiens (Human), UniProt Q92918). The experiment in a line: HPK1 Lantha binding assay ("Lanth"). The conditions noted are these: binding assays; Morrison Ki fit. In short, it runs like this: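 Ki values are from Morrison-equation fitting of 665/615 nm TR-FRET signals, taking enzyme level, tracer level and tracer Kd into account. The assay mix held HPK1 (2 nM), Eu-anti-GST antibody (2 nM) and Tracer222 (15 nM). Incubations were two 1 h steps at 23 °C, on 5-fold serial compound dilutions.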
HPK1, sequence (Q92918 1-346 limits assumed): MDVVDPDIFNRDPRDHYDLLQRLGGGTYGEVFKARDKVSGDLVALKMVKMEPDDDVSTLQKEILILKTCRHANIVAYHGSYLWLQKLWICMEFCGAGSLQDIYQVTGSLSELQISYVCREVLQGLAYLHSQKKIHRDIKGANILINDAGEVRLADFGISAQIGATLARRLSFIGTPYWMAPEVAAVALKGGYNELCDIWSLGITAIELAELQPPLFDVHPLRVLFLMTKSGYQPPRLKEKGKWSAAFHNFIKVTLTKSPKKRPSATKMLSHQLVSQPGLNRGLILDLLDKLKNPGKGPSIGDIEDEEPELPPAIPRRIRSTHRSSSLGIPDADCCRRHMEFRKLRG

SMILES strings stand for the structures.

Compound `Cn1cc(C2CCCCN2C(=O)c2cccc(-c3cnc4c(c3Cl)[C@]3(CC[C@H](O)CC3)CN4)c2F)cn1` (single isomer, unassigned) [Compound 246b] had a Ki of 316 nM.

The compound `Cn1cc(C2CCCCN2C(=O)c2c(N)ccc(-c3cnc4c(c3)[C@]3(CC[C@H](O)CC3)CN4)c2F)cn1` (single isomer, unassigned) [Compound 253a] had a Ki of 23.1 nM. Next, `Cn1cc(C2CCCCN2C(=O)c2c(N)ccc(-c3cnc4c(c3Cl)[C@]3(CC[C@H](O)CC3)CN4)c2F)cn1` (single isomer, unassigned) [Compound 254a]: 5.2 nM.

The compound `Cn1cc(C2CCCCN2C(=O)c2c(N)ccc(-c3cnc4c(c3Cl)[C@]3(CC[C@H](O)CC3)CN4)c2F)cn1` (single isomer, unassigned) [Compound 254b] had a Ki of 109 nM. To `CN(C)C(=O)c1c(N)ccc(-c2cnc3c(c2Cl)[C@]2(CC[C@](C)(C#N)C2)CN3)c1F` (single isomer, unassigned) [Compound 261a] belongs 4.2 nM. Next, `CN(C)C(=O)c1c(N)ccc(-c2cnc3c(c2Cl)[C@@]2(CC[C@@](C)(C#N)C2)CN3)c1F` (single isomer, unassigned) [Compound 261b]: 37.1 nM. Next, `Cc1c(CC#N)ccnc1-c1cccc(-c2cnc3c(c2Cl)[C@]2(CC[C@](C)(C#N)C2)CN3)c1F` (single isomer, unassigned) [Compound 266a]: 65.3 nM. `Cc1c(CC#N)ccnc1-c1cccc(-c2cnc3c(c2Cl)[C@@]2(CC[C@@](C)(C#N)C2)CN3)c1F` (single isomer, unassigned) [Compound 266b] registered a Ki of 3.9 nM. Regarding `Cc1c(CC#N)ccnc1-c1cccc(-c2cnc3c(c2Cl)[C@]2(CC[C@](C)(C(N)=O)C2)CN3)c1F` (single isomer, unassigned) [Compound 267a], the affinity, expressed as Ki, was 110 nM.

Take `Cc1c(CC#N)ccnc1-c1cccc(-c2cnc3c(c2Cl)[C@@]2(CC[C@@](C)(C(N)=O)C2)CN3)c1F` (single isomer, unassigned) [Compound 267b]: the Ki is 0.39 nM.

With `CN(C)CCN(C)C(=O)c1c(N)ccc(-c2cnc3c(c2Cl)[C@]2(CC[C@](C)(C#N)C2)CN3)c1F` (single isomer, unassigned) [Compound 271a], the Ki was 24.9 nM. In the case of `Cc1c(CC#N)ccnc1-c1cc(N)cc(-c2cnc3c(c2Cl)[C@]2(CC[C@](C)(C#N)C2)CN3)c1` (single isomer, unassigned) [Compound 274a], the Ki stood at 13.3 nM. To `Cc1c(CC#N)ccnc1-c1cc(N)cc(-c2cnc3c(c2Cl)[C@]2(CC[C@](C)(C#N)C2)CN3)c1` (single isomer, unassigned) [Compound 274b] belongs 0.9 nM; to `O=C1CCCCN1c1cccc2c(-c3cnc4c(c3Cl)[C@]3(CC[C@H](O)C3)CN4)c[nH]c12` (single isomer, unassigned) [Compound 300a], 27 nM; to `O=C1CCCCN1c1cccc2c(-c3cnc4c(c3Cl)[C@@]3(CC[C@@H](O)C3)CN4)c[nH]c12` (single isomer, unassigned) [Compound 300b], 270 nM. Next, `CO[C@@H]1C[C@@]2(CNc3ncc(-c4ccc(N)c(C(=O)N(C)C)c4F)c(Cl)c32)C[C@H]1O` (stereo in doubt) [Compound 140a, 6-Amino-3-((1R,3S,4S)-4′-chloro-3-hydroxy-4-methoxy-1′,2′-dihydrospiro[cyclopentane-1,3′-pyrrolo[2,3-b]pyridin]-5′-yl)-2-fluoro-N,N-dimethylbenzamide]: 339 nM; `CO[C@H]1C[C@]2(CNc3ncc(-c4ccc(N)c(C(=O)N(C)C)c4F)c(Cl)c32)C[C@@H]1O` (stereo in doubt) [Compound 140b, 6-Amino-3-((1S,3R,4R)-4′-chloro-3-hydroxy-4-methoxy-1′,2′-dihydrospiro[cyclopentane-1,3′-pyrrolo[2,3-b]pyridin]-5′-yl)-2-fluoro-N,N-dimethylbenzamide]: 62.5 nM.

`CN(C)C(=O)c1c(N)ccc(-c2cnc3c(c2Cl)[C@]2(CN3)CC(O)C(n3ccnn3)C2)c1F` (stereo in doubt) [Compound 146a, 6-Amino-3-((1R,3S,4S)-4′-chloro-3-hydroxy-4-(1H-1,2,3-triazol-1-yl)-1′,2′-dihydrospiro[cyclopentane-1,3′-pyrrolo[2,3-b]pyridin]-5′-yl)-2-fluoro-N,N-dimethylbenzamide] registered a Ki of 494 nM. As to `CN(C)C(=O)c1cc(-c2cnc3c(c2)C2(CCCC2)CN3)ccc1N` [Compound 1, 2-Amino-5-(1′,2′-dihydrospiro[cyclopentane-1,3′-pyrrolo[2,3-b]pyridin]-5′-yl)-N,N-dimethylbenzamide], the Ki was determined as 28.8 nM. To `CN(C)C(=O)c1cc(-c2cnc3c(c2)C2(CC2)CN3)ccc1N` [Compound 2, 2-Amino-5-(1′,2′-dihydrospiro[cyclopropane-1,3′-pyrrolo[2,3-b]pyridin]-5′-yl)-N,N-dimethylbenzamide] belongs 35.6 nM. Next, `O=C1COCCN1c1cccc(-c2cnc3c(c2)C2(CC2)CN3)c1` [Compound 3, 4-(3-(1′,2′-Dihydrospiro[cyclopropane-1,3′-pyrrolo[2,3-b]pyridin]-5′-yl)phenyl)morpholin-3-one]: 40.3 nM; `CN(C)C(=O)c1cc(-c2cnc3c(c2)C2(CCC2)CN3)ccc1N` [Compound 4, 2-Amino-5-(1′,2′-dihydrospiro[cyclobutane-1,3′-pyrrolo[2,3-b]pyridin]-5′-yl)-N,N-dimethylbenzamide]: 71.7 nM; `O=C1COCCN1c1cccc(-c2cnc3c(c2)C2(CCC2)CN3)c1` [Compound 5, 4-(3-(1′,2′-Dihydrospiro[cyclobutane-1,3′-pyrrolo[2,3-b]pyridin]-5′-yl)phenyl)morpholin-3-one]: 98.7 nM.

In turn, `CN(C)C(=O)c1c(N)ccc(-c2cnc3c(c2)C2(CC2)CN3)c1F` [Compound 6, 6-Amino-3-(1′,2′-dihydrospiro[cyclopropane-1,3′-pyrrolo[2,3-b]pyridin]-5′-yl)-2-fluoro-N,N-dimethylbenzamide] showed a Ki of 22.7 nM.

In turn, `CN(CCO)C(=O)c1c(N)ccc(-c2cnc3c(c2)C2(CC2)CN3)c1F` [Compound 7, 6-amino-3-(1′,2′-dihydrospiro[cyclopropane-1,3′-pyrrolo[2,3-b]pyridin]-5′-yl)-2-fluoro-N-(2-hydroxyethyl)-N-methylbenzamide] came in with a Ki of 21.6 nM. On to `CN(C)C(=O)c1c(N)ccc(-c2cnc3c(c2Cl)C2(CC2)CN3)c1F` [Compound 8, 6-Amino-3-(4′-chloro-1′,2′-dihydrospiro[cyclopropane-1,3′-pyrrolo[2,3-b]pyridin]-5′-yl)-2-fluoro-N,N-dimethylbenzamide], for which the Ki was found to be 7.71 nM.

As to `O=C1COCCN1c1cccc(-c2cnc3c(c2)C2(CC2)CN3)c1F` [Compound 9, 4-(3-(1′,2′-Dihydrospiro[cyclopropane-1,3′-pyrrolo[2,3-b]pyridin]-5′-yl)-2-fluorophenyl)morpholin-3-one], the affinity, expressed as Ki, was 38.9 nM. To `Nc1cc(-c2cnc3c(c2)C2(CC2)CN3)cc(-c2ncccc2CO)c1` [Compound 10, (2-(3-Amino-5-(1′,2′-dihydrospiro[cyclopropane-1,3′-pyrrolo[2,3-b]pyridin]-5′-yl)phenyl)pyridin-3-yl)methanol] belongs 12.7 nM; to `NS(=O)(=O)Cc1ccc(-c2cnc3c(c2)C2(CC2)CN3)cc1` [Compound 11, (4-(1′,2′-Dihydrospiro[cyclopropane-1,3′-pyrrolo[2,3-b]pyridin]-5′-yl)phenyl)methanesulfonamide], 91.2 nM; to `CN(CCO)C(=O)c1cccc(-c2cnc3c(c2)C2(CC2)CN3)c1F` [Compound 12, 3-(1′,2′-Dihydrospiro[cyclopropane-1,3′-pyrrolo[2,3-b]pyridin]-5′-yl)-2-fluoro-N-(2-hydroxyethyl)-N-methylbenzamide], 37.6 nM. Next, `CC1(C)C(=O)Nc2ccc(-c3cnc4c(c3)C3(CC3)CN4)cc21` [Compound 13, 5-(1′,2′-dihydrospiro[cyclopropane-1,3′-pyrrolo[2,3-b]pyridin]-5′-yl)-3,3-dimethylindolin-2-one]: 21.6 nM; `CN(C)C(=O)c1c(N)ccc(-c2cnc3c(c2)C2(CC2)CN3)c1Cl` [Compound 14, 6-amino-2-chloro-3-(1′,2′-dihydrospiro[cyclopropane-1,3′-pyrrolo[2,3-b]pyridin]-5′-yl)-N,N-dimethylbenzamide]: 863 nM; `CC1Nc2ncc(-c3ccc(N)c(C(=O)N(C)C)c3F)cc2C12CC2` (stereo not shown) [Compound 15, 6-Amino-2-fluoro-N,N-dimethyl-3-(2′-methyl-1′,2′-dihydrospiro[cyclopropane-1,3′-pyrrolo[2,3-b]pyridin]-5′-yl)benzamide]: 122 nM. To `CN(C)C(=O)c1cc(CO)cc(-c2cnc3c(c2)C2(CC2)CN3)c1` [Compound 16, 3-(1′,2′-dihydrospiro[cyclopropane-1,3′-pyrrolo[2,3-b]pyridin]-5′-yl)-5-(hydroxymethyl)-N,N-dimethylbenzamide] belongs 521 nM. In turn, `Nc1ccc(-c2cnc3c(c2)C2(CC2)CN3)c(F)c1C(=O)N1CCCC1CO` (stereo not shown) [Compound 17, (6-amino-3-(1′,2′-dihydrospiro[cyclopropane-1,3′-pyrrolo[2,3-b]pyridin]-5′-yl)-2-fluorophenyl)(2-(hydroxymethyl)pyrrolidin-1-yl)methanone] registered a Ki of 32.8 nM. Compound `CN(C)C(=O)c1cc(-c2cnc3c(c2)C2(CC2)CN3)ccc1CO` [Compound 18, 5-(1′,2′-dihydrospiro[cyclopropane-1,3′-pyrrolo[2,3-b]pyridin]-5′-yl)-2-(hydroxymethyl)-N,N-dimethylbenzamide] displayed a Ki of 259 nM. Next, `CN(C(=O)c1c(N)ccc(-c2cnc3c(c2)C2(CC2)CN3)c1F)C(C)(C)CO` [Compound 19, 6-amino-3-(1′,2′-dihydrospiro[cyclopropane-1,3′-pyrrolo[2,3-b]pyridin]-5′-yl)-2-fluoro-N-(1-hydroxy-2-methylpropan-2-yl)-N-methylbenzamide]: 20.8 nM.

In general, Ki refers to a dissociation constant, usually derived from enzyme kinetics or from competition with a known ligand. A higher Ki goes with a looser hold on the target.

Values taken from patent US12208088B2 (Genentech, Inc., priority 2018, dated 2025).
